Several values for one entry are separate records, joined by “and”; a condition that tells them apart may be missing. Equal entries are not always repeated. Where two headings read alike, the source gives them in different places.
Legend:
[1] = cited from earlier work
[2] = set-up: method as in doi:10.4172/jbb.1000130; conditions: cited from earlier work
[3] = test system: α1-adrenergic receptors; set-up: method as in PMID 20694066; conditions: cited from earlier work
[4] = test system: muscarinic–cholinergic receptors; set-up: method as in PMID 20694066; conditions: cited from earlier work
[5] = Single-dose (Pristiq 100 mg, oral) pharmacokinetics in healthy volunteers, plasma LC-MS/MS, non-compartmental; type: in vivo, human
Source text: The present study was nested in a single-dose, open-label, randomized, pharmaco-bioequivalence study performed under biosafety and ethical standards. The data used were derived from 35 healthy volunteers who received the reference drug (Pristiq®, by Pfizer, Newbridge–Ireland) and who were selected for the study after assessment of their health status via clinical evaluation and a comprehensive set of laboratory tests. The same parameters were used to monitor adverse events post study.
The analytical method was validated according to the respective resolution of the Agência Nacional de Vigilância Sanitária [Brazilian Public Health Surveillance Agency] [9]. The study used an LC-MS/MS system to verify quantification and calculate pharmacokinetic parameters and performed chromatographic separations in an LC-20AD analytical pump (Shimadzu-Kyoto, Japan) using a SIL-20A HT autosampler (Shimadzu-Kyoto, Japan), coupled with mass spectrometry analyses using a Quattro Micro (Micromass, Newcastle, UK) mass spectrometer equipped with an electrospray ionization (ESI) source. […] was detected via a multiple reaction monitoring (MRM) transition of 264.33 > 58.15, and orphenadrine was detected via an MRM transition of 270.32 > 181.26. Data was acquired using MassLynx 4.1 (Waters, Newcastle, UK). More information on the validation method can be found in the Supplementary Materials, including chromatograms for the selectivity assay (Figure S1). Pharmacokinetic parameters were calculated employing a non-compartmental statistic using WinNonLin 8.3 software (Pharsight, New Jersey, USA).
Volunteers and Study Design
The study started with 48 enrolled participants. Of these, 13 participants desisted after drug administration. Of the 35 remaining participants, 23 different adverse events were reported for some of them.
The reference formulation was desvenlafaxine succinate monohydrate controlled-release coated tablet of 100 mg Pristiq® with administration of one single-dose tablet. The volunteers were hospitalized at 7:30 p.m. and had supper before 9:30 p.m. After an overnight fast, they received (at ∼5:40 a.m.) a tablet of 100 mg desvenlafaxine succinate monohydrate with 200 mL of water. The volunt eers then fasted for 4 h, after which period a standard lunch was served. A specific high-calorie diet was administered thirty minutes before taking the medication; Lunch: 4 hours after taking the medication; Afternoon snack:
8 hours after taking the medication; Dinner: 10 hours after taking the medication.
It was necessary to observe the ethical principle of non-maleficence due to the adverse event of nausea being considered very common (≥ 10%). the antiemetic (Dramin® B6 DL - IV - 30 mg / 100 mL saline / 30 minutes) was administered twice: the first dose immediately after administration of the study medication and a second dose 5:00 hours after administration of the study medication.
At 2 h before and 6, 8 and 12 h after the dose administration, vital signs were checked.
The recruitment period was 24 h, during which period, blood samples (8 mL) from a suitable antecubital vein were collected, post-dosing via an indwelling catheter, into […]
samples were centrifuged at ∼2,000×g for 10 min at 4°C, and the plasma was stored at - 70°C until assayed. Samples were handled under yellow light, due to the photosensitivity […]
Determination of Pharmacokinetic Profile by LC-MS/MS
Chromatographic separations were performed in an LC-20AD analytical pump and SIL-20A HT autosampler from Shimadzu. The stationary phase employed a Luna AgilLuna Agilent Polaris 5 µm C18-A 50 x 2,0mm column (Phenomenex). The mobile phase consisted of a solution of 10 mM ammonium acetate with 0.1% formic acid (Phase A) and acetonitrile with 0.1% formic acid (Phase B), flowing at 0.3 mL/min in proportion (2:8). The autosampler was maintained at 22°C, with an injection volume of 10 µl and 2.2- […]
Mass spectrometry was conducted on a Quattro Micro mass spectrometer from […]

[6] = test system: H1-histaminergic receptors; set-up: method as in PMID 20694066; conditions: cited from earlier work
[7] = set-up: method as in doi:10.4172/jbb.1000130; conditions: cited from earlier work; remark: listed apart in the source
[8] = Adverse events monitored by clinical evaluation and laboratory tests after single dose; type: in vivo, human
Source text: The present study was nested in a single-dose, open-label, randomized, pharmaco-bioequivalence study performed under biosafety and ethical standards. The data used were derived from 35 healthy volunteers who received the reference drug ([…]®, by Pfizer, Newbridge-Ireland) and who were selected for the study after assessment of their health status via clinical evaluation and a comprehensive set of laboratory tests. The same parameters were used to monitor adverse events post study. At the beginning and end of the study, all participants underwent clinical evaluation and laboratory tests using the reference values proposed by […] or without clinical significance, according to a medical report. A complete summary of participants' characteristics is available in Table S1. Clinical and laboratory characteristics outside the normal referential criteria were reported as adverse events (Table S2). page 3: Pharmaceutics 2024, 16, 1385 3 of 6 1. Supplementary Methods Volunteers and Study Design The study started with 48 enrolled participants. Of these, 13 participants desisted after drug administration. Of the 35 remaining participants, 23 different adverse events were reported for some of them. The reference formulation was desvenlafaxine succinate monohydrate controlled- release coated tablet of 100 mg […]® with administration of one single-dose tablet. The volunteers were hospitalized at 7:30 p.m. and had supper before 9:30 p.m. After an overnight fast, they received (at ∼5:40 a.m.) a tablet of 100 mg desvenlafaxine succinate monohydrate with 200 mL of water. The volunt eers then fasted for 4 h, after which period a standard lunch was served. A specific high-calorie diet was administered thirty minutes before taking the medication; Lunch: 4 hours after taking the medication; Afternoon snack: 8 hours after taking the medication; Dinner: 10 hours after taking the medication. It was necessary to observe the ethical principle of non-maleficence due to the adverse event of nausea being considered very common (≥ 10%). the antiemetic ([…] - 30 mg / 100 mL saline / 30 minutes) was administered twice: the first dose immediately after administration of the study medication and a second dose 5:00 hours after administration of the study medication. At 2 h before and 6, 8 and 12 h after the dose administration, vital signs were checked. The recruitment period was 24 h, during which period, blood samples (8 mL) from a suitable antecubital vein were collected, post-dosing via an indwelling catheter, into Heparin lithium-containing tubes at 0, 1:00, 2:00, 3:00, 4:00, 5:00, 6:00, 6:15, 6:30, 6:45, 7:00, 7:15, 7:30, 7:45, 8:00, 8:20, 8:40, 9:00, 10:00, 12:00, 24:00, and 36:00, 48:00, 72.0h. The blood samples were centrifuged at ∼2,000×g for 10 min at 4°C, and the plasma was stored at - 70°C until assayed. Samples were handled under yellow light, due to the photosensitivity of the drug. Determination of Pharmacokinetic Profile by LC-MS/MS Chromatographic separations were performed in an LC-20AD analytical pump and SIL-20A HT autosampler from Shimadzu. The stationary phase employed a Luna AgilLuna Agilent Polaris 5 μm […] 50 x 2,0mm column (Phenomenex). The mobile phase consisted of a solution of 10 mM ammonium acetate with 0.1% formic acid (Phase A) and acetonitrile with 0.1% formic acid (Phase B), flowing at 0.3 mL/min in proportion (2:8). The autosampler was maintained at 22°C, with an injection volume of 10 μl and 2.2- minute duration. Mass spectrometry was conducted on a Quattro Micro mass spectrometer from Micromass, equipped with an electrospray ionization (ESI) source. […]

[9] = test system: monoamine oxidase; set-up: method as in PMID 20694066; conditions: cited from earlier work
[10] = 35 healthy volunteers, single oral 100 mg Pristiq, plasma
[11] = 35 participants, single 100 mg dose

CN(C)CC(c1ccc(O)cc1)C1(O)CCCCC1 (stereo not shown) [desvenlafaxine, O-desmethylvenlafaxine]
blood cholesterol and triglyceride levels [1]: can increase | participants with increased blood pressure ([1]; five participants of a clinical study): 10% | systolic and diastolic blood pressure change ([1]; short-term desvenlafaxine treatment): small but statistically significant increases | frequency of the adverse event nausea (very common) ([1]; stated as known frequency, no reference given): ≥ 10% | plasma protein binding [2]: 30% | effect on α1-adrenergic receptors [3]: does not significantly affect | effect on muscarinic–cholinergic receptors [4]: does not significantly affect | AUC 0-t, Maximum [5, 10]: 10,338.49 h*ng/mL | AUC 0-t, Minimum [5, 10]: 2.71168 µg·h/mL | Cmax, Maximum [5, 10]: 0.46915 µg/mL | Cmax, Minimum [5, 10]: 0.12316 µg/mL | Kel, Maximum [5, 10]: 0.11 h⁻¹ | Kel, Minimum [5, 10]: 0.06 h⁻¹ | T ½, Maximum [5, 10]: 12.00 h | T ½, Minimum [5, 10]: 6.63 h | Tmax, Maximum [5, 10]: 12.00 h | Tmax, Minimum [5, 10]: 4.00 h | AUC(0-t) ([5]; human, plasma, po, 100 mg, 35 healthy volunteers, single oral 100 mg Pristiq, plasma, read-out: AUC 0-t, Mean): 6.05 µg·h/mL | AUC(0-t) ([5]; human, plasma, po, 100 mg, 35 healthy volunteers, single oral 100 mg Pristiq, plasma, read-out: AUC 0-t, Median): 5.78 µg·h/mL | Cmax ([5]; human, plasma, po, 100 mg, 35 healthy volunteers, single oral 100 mg Pristiq, plasma, read-out: Cmax, Mean): 0.29 µg/mL | Cmax ([5]; human, plasma, po, 100 mg, 35 healthy volunteers, single oral 100 mg Pristiq, plasma, read-out: Cmax, Median): 0.276 µg/mL | k el ([5]; human, plasma, po, 100 mg, 35 healthy volunteers, single oral 100 mg Pristiq, plasma, read-out: Kel, Mean (converted)): 2.22e-05 s⁻¹ | k el ([5]; human, plasma, po, 100 mg, 35 healthy volunteers, single oral 100 mg Pristiq, plasma, read-out: Kel, Median (converted)): 1.94e-05 s⁻¹ | half-life ([5]; human, plasma, po, 100 mg, 35 healthy volunteers, single oral 100 mg Pristiq, plasma, read-out: T ½, Mean (converted)): 9.43 h | half-life ([5]; human, plasma, po, 100 mg, 35 healthy volunteers, single oral 100 mg Pristiq, plasma, read-out: T ½, Median (converted)): 9.35 h | Tmax ([5]; human, plasma, po, 100 mg, 35 healthy volunteers, single oral 100 mg Pristiq, plasma, read-out: Tmax, Mean): 7.4 h | Tmax ([5]; human, plasma, po, 100 mg, 35 healthy volunteers, single oral 100 mg Pristiq, plasma, read-out: Tmax, Median): 7.5 h | k el ([5]; human, plasma, po, 100 mg, individual participants, single oral 100 mg Pristiq, read-out: Kel (converted)): 1.94e-05 s⁻¹ | half-life ([5]; human, plasma, po, 100 mg, individual participants, single oral 100 mg Pristiq, read-out: T1/2 (converted)): 10.1 h | Tmax ([5]; individual participants P1-P35, single oral 100 mg Pristiq): 6.50 h and 8.67 h and 6.25 h and 4.00 h and 6.00 h and 8.33 h and 6.75 h and 7.00 h and 10.00 h and 5.00 h and 7.75 h and 12.00 h and 9.00 h | effect on H1-histaminergic receptors [6]: does not significantly affect | volume of distribution ([7]; after intravenous administration): 3.4 L/kg | excreted as the glucuronide metabolite [7]: ~ 19% | excreted as the oxidative metabolite (N,O-didesmethylvenlafaxine) [7]: < 5% | excreted unchanged [7]: ~ 45% | mean half-life [7]: approximately 11 h | bioavailability ([7]; oral intake): 80% | time to maximum plasma concentrations (Cmax) ([7]; oral intake): 7.5 h | Alanine Aminotransferase Increased, events count [8, 11]: 3 | Altered Erythrogram, events count [8, 11]: 1 | Altered Leukogram, events count [8, 11]: 3 | Anxiety, events count [8, 11]: 1 | Aspartate Transaminase Increased, events count [8, 11]: 5 | Cephalea, events count [8, 11]: 3 | Diarrhea, events count [8, 11]: 1 | General malaise, events count [8, 11]: 6 | Incresead triglycerides, events count [8, 11]: 2 | Leukocyturia, events count [8, 11]: 2 | Nausea, events count [8, 11]: 5 | Syncope, events count [8, 11]: 1 | Total Cholesterol Increased, events count [8, 11]: 1 | Vomiting, events count [8, 11]: 6 | Alanine Aminotransferase Increased, intensity ([8]; human, in vivo): Mild | Altered Erythrogram, intensity ([8]; human, in vivo): Mild | Altered Leukogram, intensity ([8]; human, in vivo): Mild | Anxiety, intensity ([8]; human, in vivo): Mild | Aspartate Transaminase Increased, intensity ([8]; human, in vivo): Mild | Cephalea, intensity ([8]; human, in vivo): Mild | Diarrhea, intensity ([8]; human, in vivo): Mild | General malaise, intensity ([8]; human, in vivo): Mild | Incresead triglycerides, intensity ([8]; human, in vivo): Mild | Leukocyturia, intensity ([8]; human, in vivo): Mild | Nausea, intensity ([8]; human, in vivo): Mild | Syncope, intensity ([8]; human, in vivo): Mild | Total Cholesterol Increased, intensity ([8]; human, in vivo): Mild | Vomiting, intensity ([8]; human, in vivo): Mild | inhibition of monoamine oxidase [9]: nor does it inhibit

Reference: PMC11597518, “Pharmacometabolomics Approach to Explore Pharmacokinetic Variation and Clinical Characteristics of a Single Dose of Desvenlafaxine in Healthy Volunteers” (Pharmaceutics, 2024)
